What was measured:
[1] = target: ERK2 (Homo sapiens (Human), UniProt P28482); assay: Active ERK1 and ERK2 Kinase Assay (Mobility Shift Assay); format: biochemical; details: activated ERK2, Mobility Shift Assay
Procedure: Activated ERK1 and ERK2 activity was determined in a Mobility Shift Assay (MSA) format as follows: Compound and kinase solution were prepared with assay buffer (20 mM HEPES, 0.01% Triton X-100, 2 mM DTT, pH7.5) and mixed and incubated in for 30 mins at rt. ERK1 & ERK2 were then activated by the addition of F1-Substrate, ATP and metal solution and incubated for 1 h at rt. After 1 h, the reaction was terminated by the addition of […] of Termination Buffer (QuickScout Screening Assist MSA; Carna Biosciences) to the well. The reaction mixture was applied to LabChip™ system (PerkinElmer), and the product and substrate peptide peaks were separated, analyzed and quantitated. The kinase reaction is evaluated by the product ratio calculated from peak heights of product (P) and substrate(S) peptides (P/(P+S)).

[2] = tested on: A375 (melanoma) cells; assay: Proliferation Assay (CellTiter-Glo); format: cell-based; details: 3 days incubation, CellTiter-Glo luminescence
Procedure: A375 (melanoma), Colo-205 (colon cancer), Miapaca (pancreatic), HPAFII (pancreatic), sNF02.0 (neurofibromatosis type 1), sNF96.2 (neurofibromatosis type 1) and 8505 (Thyroid) cells were grown and maintained in RPMI-1640 medium containing 100 U/mL penicillin-streptomycin and 10% fetal bovine serum. Cells were in growth medium in 96-well opaque-walled clear bottom plates and incubated in the CO2 incubator overnight before treatment. Cells were treated with compounds diluted in DMSO and a 10 point 3-fold serial dilutions were done. Plates were placed in 37° C., 5% CO2 to incubate for 3 days. Before they were developed by adding 100 μL of CellTiter-Glo reagent (Promega) to the assay plate, plates were shaken briefly for 2 mins and allowed to incubate at room temperature for 10 mins. The bottom of the plates was pasted with white back seal and luminescence was recorded with Flexstation3 with setting of luminescence, integration time 500 ms.
Compounds of Formula (I), (II) and (III) are active in this assay as noted in Table 2.

Chain of ERK2 (P28482 whole entry): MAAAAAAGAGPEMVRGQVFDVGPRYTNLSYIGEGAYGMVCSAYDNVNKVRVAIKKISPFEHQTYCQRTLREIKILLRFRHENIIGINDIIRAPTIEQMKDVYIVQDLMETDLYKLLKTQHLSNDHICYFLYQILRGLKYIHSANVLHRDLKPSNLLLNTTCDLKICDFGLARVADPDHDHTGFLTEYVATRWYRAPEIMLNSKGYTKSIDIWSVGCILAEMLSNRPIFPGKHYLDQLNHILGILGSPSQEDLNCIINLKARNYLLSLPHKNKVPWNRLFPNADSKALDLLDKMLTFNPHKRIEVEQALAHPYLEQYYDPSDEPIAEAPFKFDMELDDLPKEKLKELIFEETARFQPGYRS

IC50 [1] [nM] | IC50 [2] [nM] | IC50 ([2]; Homo sapiens, A-375, 72 h) [nM] | Structure (SMILES)
≤ 50 | 500 to 1000 |  | CC(C)Oc1ccc(-c2n[nH]c3ccc(N4CC[C@]5(CCN(CC(=O)N6CCC(c7ccc(-c8ncn(C)n8)cc7)CC6)C5)C4=O)nc23)cn1 [Example 71]
≤ 50 | 500 to 1000 |  | CC(C)c1nc2cc(-c3n[nH]c4ccc(N5CC[C@]6(CCN(CC(=O)N7CC=C(c8ccc(-c9ncn(C)n9)cc8)CC7)C6)C5=O)nc34)ccc2o1 [Example 91]
≤ 50 | ≤ 500 |  | Cc1cc(-c2n[nH]c3ccc(N4CC[C@]5(CCN(CC(=O)N6CCN(c7ccc(-c8ncn(C)n8)cn7)CC6)C5)C4=O)nc23)ccn1 [Example 44]
≤ 50 | ≤ 500 |  | Cn1cnc(-c2ccc(C3=CCN(C(=O)CN4CC[C@]5(CCN(c6ccc7[nH]nc(-c8ccc(OC9CCC9)nc8)c7n6)C5=O)C4)CC3)cc2)n1 [Example 77]
≤ 50 | ≤ 500 |  | COc1cccc(-c2n[nH]c3ccc(N4CC[C@]5(CCN(CC(=O)N6CC=C(c7ccc(-c8ncn(C)n8)cc7)CC6)C5)C4=O)cc23)n1 [Example 61]
≤ 50 |  | ≤ 500 | CC(C)n1cc(-c2n[nH]c3ccc(N4CC[C@]5(CCN(CC(=O)N6CC=C(c7ccc(-c8ncn(C)n8)cc7)CC6)C5)C4=O)nc23)cn1 [Example 40]
≤ 50 |  | 500 to 1000 | Cn1cnc(-c2ccc(C3=CCN(C(=O)CN4CC[C@]5(CCN(c6ccc7[nH]nc(C89CC(C#N)(C8)C9)c7c6)C5=O)C4)CC3)cc2)n1 [Example 73, (S)-3-(5-(7-(2-(4-(4-(1-Methyl-1H-1,2,4-triazol-3-yl)phenyl)-5,6-dihydropyridin-1(2H)-yl)-2-oxoethyl)-1-oxo-2,7-diazaspiro[4.4]nonan-2-yl)-1H-indazol-3-yl)bicyclo[1.1.1]pentane-1-carbonitrile]
≤ 50 |  | 500 to 1000 | Cn1cnc(-c2ccc(C3=CCN(C(=O)CN4CC[C@]5(CCN(c6ccc7[nH]nc(C8CCN(CC(F)(F)F)CC8)c7c6)C5=O)C4)CC3)cc2)n1 [Example 12, (S)-7-(2-(4-(4-(1-Methyl-1H-1,2,4-triazol-3-yl)phenyl)-5,6-dihydropyridin-1(2H)-yl)-2-oxoethyl)-2-(3-(1-(2,2,2-trifluoroethyl)piperidin-4-yl)-1H-indazol-5-yl)-2,7-diazaspiro[4.4]nonan-1-one]
≤ 50 | 500 to 1000 |  | Cn1cnc(-c2ccc(C3=CCN(C(=O)CN4CC[C@]5(CCN(c6ccc7[nH]nc(-c8ccc9c(c8)OC(C)(C)O9)c7n6)C5=O)C4)CC3)cc2)n1 [Example 62]
≤ 50 |  | ≤ 500 | Cn1cnc(-c2ccc(C3=CCN(C(=O)CN4CC[C@]5(CCN(c6ccc7[nH]nc(-c8ccc(C#N)cc8)c7n6)C5=O)C4)CC3)cc2)n1 [Example 27]
≤ 50 | 500 to 1000 |  | Cn1cnc(-c2ccc(C3=CCN(C(=O)CN4CC[C@]5(CCN(c6ccc7[nH]nc(-c8cnn(C)n8)c7n6)C5=O)C4)CC3)cc2)n1 [Example 59]
≤ 50 | ≤ 500 |  | COc1ccc(-c2n[nH]c3ccc(N4CC[C@]5(CCN(CC(=O)N6CC=C(c7ccc(-c8ncn(C)n8)s7)CC6)C5)C4=O)nc23)cn1 [Example 66]
≤ 50 |  | ≤ 500 | Cc1ccc(-c2n[nH]c3ccc(N4CC[C@]5(CCN(CC(=O)N6CC=C(c7ccc(-c8nn(C)c(=O)o8)cc7)CC6)C5)C4=O)nc23)cn1 [Example 35]
≤ 50 |  | ≤ 500 | Cc1cc(-c2n[nH]c3ccc(N4CC[C@]5(CCN(CC(=O)N6CC=C(c7ccc(-c8ncn(C)n8)cc7)CC6)C5)C4=O)nc23)ccn1 [Example 38]
≤ 50 | ≤ 500 |  | COc1ccc(-c2n[nH]c3ccc(N4CC[C@]5(CCN(CC(=O)N6CC=C(c7ccc(-c8ncn(C)n8)cc7)CC6)C5)C4=O)nc23)cc1OC [Example 92]
≤ 50 | ≤ 500 |  | Cn1cnc(-c2ccc(C3=CCN(C(=O)CN4CC[C@]5(CCN(c6ccc7[nH]nc(C8CCOCC8)c7n6)C5=O)C4)CC3)s2)n1 [Example 64]
≤ 50 | ≤ 500 |  | COc1ccc(-c2n[nH]c3ccc(N4CC[C@]5(CCN(CC(=O)N6CC=C(c7ccc(-c8ncn(C)n8)cc7)CC6)C5)C4=O)cc23)nc1 [Example 60]
≤ 50 | ≤ 500 |  | Cn1cnc(-c2ccc(C3=CCN(C(=O)CN4CC[C@]5(CCN(c6ccc7[nH]nc(-c8ccc(F)cn8)c7c6)C5=O)C4)CC3)s2)n1 [Example 55]
≤ 50 | ≤ 500 |  | Cn1cnc(-c2ccc(C3=CCN(C(=O)CN4CC[C@]5(CCN(c6ccc7[nH]nc(-c8ccc(OC9CC9)nc8)c7n6)C5=O)C4)CC3)cc2)n1 [Example 67]
≤ 50 | ≤ 500 |  | CCOc1ccc(-c2n[nH]c3ccc(N4CC[C@]5(CCN(CC(=O)N6CC=C(c7ccc(-c8ncn(C)n8)cc7)CC6)C5)C4=O)nc23)cn1 [Example 81]

More lines, now with the values behind:

Structure (SMILES) | IC50 [1] [nM] | IC50 [2] [nM] | IC50 ([2]; Homo sapiens, A-375, 72 h) [nM]
Cn1nc(-c2ccc(C3=CCN(C(=O)CN4CC[C@]5(CCN(c6ccc7[nH]nc(-c8ccc(C#N)c(Cl)c8)c7c6)C5=O)C4)CC3)cc2)oc1=O [Example 14] | ≤ 50 | ≤ 500 | 
Cn1cnc(-c2ccc(C3=CCN(C(=O)CN4CC[C@]5(CCN(c6ccc7[nH]nc(-c8cnc(C#N)c(Cl)c8)c7c6)C5=O)C4)CC3)cc2)n1 [Example 9] | ≤ 50 |  | ≤ 500
Cn1cnc(-c2cnc(C3=CCN(C(=O)CN4CC[C@]5(CCN(c6ccc7[nH]nc(-c8ccc(F)cc8)c7c6)C5=O)C4)CC3)s2)n1 [Example 17] | ≤ 50 | ≤ 500 | 
Cn1cnc(-c2ccc(C3=CCN(C(=O)CN4CC[C@]5(CCN(c6ccc7[nH]nc(-c8ccc(C#N)cn8)c7n6)C5=O)C4)CC3)cc2)n1 [Example 51] | ≤ 50 | ≤ 500 | 
CC(C)n1cc(-c2n[nH]c3ccc(N4CC[C@]5(CCN(CC(=O)N6CCN(c7ccc(-c8ncn(C)n8)cc7)CC6)C5)C4=O)nc23)cn1 [Example 41] | ≤ 50 | ≤ 500 | 
Cn1cnc(-c2ccc(C3=CCN(C(=O)CN4CC[C@]5(CCN(c6ccc7[nH]nc(-c8cnc(C#N)c(C(F)(F)F)c8)c7c6)C5=O)C4)CC3)cc2)n1 [Example 10] | ≤ 50 |  | 500 to 1000
CC(C)Oc1ccc(-c2n[nH]c3ccc(N4CC[C@]5(CCN(CC(=O)N6CC=C(c7ncc(-c8ncn(C)n8)s7)CC6)C5)C4=O)nc23)cn1 [Example 25] | ≤ 50 | ≤ 500 | 
Cn1cnc(-c2ccc(C3=CCN(C(=O)CN4CC[C@]5(CCN(c6ccc7[nH]nc(N8CCCC8)c7c6)C5=O)C4)CC3)cc2)n1 [Example 11, (S)-7-(2-(4-(4-(1-Methyl-1H-1,2,4-triazol-3-yl)phenyl)-5,6-dihydropyridin-1(2H)-yl)-2-oxoethyl)-2-(3-(pyrrolidin-1-yl)-1H-indazol-5-yl)-2,7-diazaspiro[4.4]nonan-1-one] | ≤ 50 |  | ≥ 1000
Cn1cnc(-c2ccc(C3=CCN(C(=O)CN4CC[C@]5(CCN(c6ccc7[nH]nc(C8CCS(=O)(=O)CC8)c7c6)C5=O)C4)CC3)cc2)n1 [Example 7, (S)-7-(2-(4-(4-(1-Methyl-1H-1,2,4-triazol-3-yl)phenyl)-5,6-dihydropyridin-1(2H)-yl)-2-oxoethyl)-2-(3-(tetrahydro-2H-thiopyran 1,1-dioxide-4-yl)-1H-indazol-5-yl)-2,7-diazaspiro[4.4]nonan-1-one] | ≤ 50 |  | ≥ 1000
Cn1nc(-c2ccc(C3=CCN(C(=O)CN4CC[C@]5(CCN(c6ccc7[nH]nc(-c8ccc(F)cc8)c7c6)C5=O)C4)CC3)cc2)oc1=O [Example 18] | ≤ 50 | ≤ 500 | 
Cn1nc(-c2ccc(C3=CCN(C(=O)CN4CC[C@]5(CCN(c6ccc7[nH]nc(-c8ccc(C#N)c(C(F)(F)F)c8)c7c6)C5=O)C4)CC3)cc2)oc1=O [Example 15] | ≤ 50 | 500 to 1000 | 
COc1ccc(-c2n[nH]c3ccc(N4CC[C@]5(CCN(CC(=O)N6CC=C(c7ccc(-c8ncn(C)n8)cc7)CC6)C5)C4=O)nc23)cn1 [Example 21] | ≤ 50 | ≤ 500 | 
COc1ccc(-c2n[nH]c3ccc(N4CC[C@]5(CCN(CC(=O)N6CC=C(c7ccc(-c8nn(C)c(=O)o8)cc7)CC6)C5)C4=O)cc23)cn1 [Example 19] | ≤ 50 | ≤ 500 | 
CNC(=O)c1ccc(-c2n[nH]c3ccc(N4CC[C@]5(CCN(CC(=O)N6CC=C(c7ccc(-c8ncn(C)n8)cc7)CC6)C5)C4=O)cc23)cn1 [Example 6] | ≤ 50 |  | ≤ 500
COc1ccc(-c2n[nH]c3ccc(N4CC[C@]5(CCN(CC(=O)N6CCN(c7ccc(-c8ncn(C)n8)cn7)CC6)C5)C4=O)nc23)cn1 [Example 46] | ≤ 50 | ≤ 500 | 
Cn1cnc(-c2cnc(C3=CCN(C(=O)CN4CC[C@]5(CCN(c6ccc7[nH]nc(-c8ccc(F)cc8)c7n6)C5=O)C4)CC3)s2)n1 [Example 47] | ≤ 50 | ≤ 500 | 
